Results reported in patent publication US20180318287A1, “Imidazo[4,5-c]quinolin-2-one Compounds and Their Use in Treating Cancer” (ASTRAZENECA AB, priority 2015, published 2018).
Read-outs that look alike come from different tables or passages of the source.

Legend:
Format in all cases: cell-based
ATM kinase = biological target: T1, ATM kinase (Homo sapiens, UniProt Q13315); experiment: Assay a): ATM cellular potency (pATM Ser1981 in irradiated HT29 cells)
T1 construct: endogenous in cells; host or cells: HT29 cells (ECACC #85061109)
Experimental: Most ATM molecules in the cell are rapidly phosphorylated on this site after doses of radiation as low as 0.5 Gy, and binding of a phosphospecific antibody is detectable after the introduction of only a few DNA double-strand breaks in the cell.
The rationale of the p ATM assay is to identify inhibitors of ATM in cells. HT29 cells are incubated with test compounds for 1 hr prior to X-ray-irradiation. 1 h later the cells are fixed and stained for p ATM (Ser1981). The fluorescence is read on the arrayscan imaging platform.
The following morning compounds of Formula (I) in 100% DMSO were added to assay plates by acoustic dispensing. After 1 h incubation at 37° C. and 5% CO2, plates (up to 6 at a time) were irradiated using the X-RAD 320 instrument (PXi) with equivalent to ˜600cGy. Plates were returned to the incubator for a further 1 h. […] Then 20 μl of 0.1% Triton X100 in PBS was added and incubated for 20 minutes at r.t., to permeabalise cells. Then the plates were washed once with […] PBS, using a Biotek EL405 plate washer.
After 1 h incubation at r.t., the plates were washed three times with 50 μl/well PBS, using a Biotek EL405 plate washer, and plates were sealed and kept in PBS at 4° C. until read. Plates were read using an ArrayScan VTI instrument, using an XF53 filter with 10× objective.

mTOR = biological target: T2, mTOR (Homo sapiens, UniProt P42345); experiment: Assay d): mTOR cellular potency (phospho-AKT Ser473 in MDA-MB-468 cells)
T2 construct: phosphorylation of the Akt protein at Ser473 (AKT lies downstream of PI3Kα in the signal transduction pathway) in the MDA-MB-468 cells; endogenous in cells; host or cells: MDA-MB-468 cells (ATCC HTB 132)
Experimental: This assay was used to measure mTOR inhibition in cells. The aim of the phospho-AKT cell based mechanism of action assay using the Acumen Explorer is to identify inhibitors of either PI3Kα or mTOR-Rictor (Rapamycin insensitive companion of mTOR). This is measured by any decrease in the phosphorylation of the Akt protein at Ser473 (AKT lies downstream of PI3Kα in the signal transduction pathway) in the MDA-MB-468 cells following treatment with compound.
MDA-MB-468 cells (human breast adenocarcinoma #ATCC HTB 132) were seeded at 1500 cells/well in 40 μl of DMEM containing 10% FBS and 1% glutamine into Greiner 384 well black flat-bottomed plates. Cell plates were incubated for 18 h in a 37° C. incubator before dosing with compounds of Formula (I) in 100% DMSO using acoustic dispensing. Compounds were dosed in a 12 point concentration range into a randomised plate map. Control wells were generated either by dosing of 100% DMSO (max signal) or addition of a reference compound (a PI3K-βinhibitor) that completely eliminated the pAKT signal (min control). Plates were incubated at 37° C. for 2 h; cells were then fixed by the addition of 10 μl of a 3.7% formaldehyde solution. After 30 minutes the plates were washed with PBS using a Tecan PW384 plate washer. Wells were blocked and cells permeabilised with the addition of 40 μl of PBS containing 0.5% Tween20 and 1% Marvel™ (dried milk powder) and incubated for 60 minutes at r.t. The plates were washed with PBS containing 0.5% (v/v) Tween20 and 20 μl rabbit anti-phospho AKT Ser473 (Cell Signalling Technologies, #3787) in same PBS-Tween+1% Marvel™ was added and incubated overnight at 4° C.
Plates were washed 3 times with PBS+0.05% Tween 20 using a Tecan PW384. 20 μl of secondary antibody Alexa Fluor 488 anti-Rabbit (Molecular Probes, #A11008) diluted in PBS+0.05% Tween20 containing 1% Marvel™ was added to each well and incubated for 1 h at r.t. Plates were washed three times as before then 20 μl PBS added to each well and plates sealed with a black plate sealer.
The plates were read on an Acumen plate reader as soon as possible, measuring green fluorescence after excitation with 488 nm laser. Using this system IC50 values were generated and quality of plates was determined by control wells. Reference compounds were run each time to monitor assay performance.

ATR kinase = biological target: T3, ATR kinase (Homo sapiens, UniProt Q13535); experiment: Assay b): ATR cellular potency (pChk1 Ser345 in HT29 cells after 4NQO)
T3 construct: endogenous in cells; host or cells: HT29 cells (ECACC #85061109)
Experimental: ATR is a PI 3-kinase-related kinase which phosphorylates multiple substrates on serine or threonine residues in response to DNA damage during or replication blocks. Chk1, a downstream protein kinase of ATR, plays a key role in DNA damage checkpoint control. Activation of Chk1 involves phosphorylation of Ser317 and Ser345 (the latter regarded as the preferential target for phosphorylation/activation by ATR).
The following morning compound of Formula (I) in 100% DMSO were added to assay plates by acoustic dispensing. After 1 h incubation at 37° C. and 5% CO2, 40 nl of 3 mM 4NQO in 100% DMSO was added to all wells by acoustic dispensing, except minimum control wells which were left untreated with 4NQO to generate a null response control. Plates were returned to the incubator for a further 1 h. […] Then 20 μl of 0.1% Triton X100 in PBS was added and incubated for 10 minutes at r.t., to permeabalise cells. Then the plates were washed once with 50 μl/well PBS, using a Biotek EL405 plate washer.
After 2 h incubation at r.t., the plates were washed three times with 50 μl/well PBS, using a Biotek EL405 plate washer, and plates were then sealed with black plate seals until read. Plates were read using an ArrayScan VTI instrument, using an XF53 filter with 10× objective.

[1] = HT29 cells, X-ray irradiation, pATM Ser1981; Table 2; read-out: Assay a) ATM Cell IC50
[2] = MDA-MB-468 cells, phospho-AKT Ser473, 2 h; Table 2; read-out: Assay d) mTOR Cell IC50
[3] = HT29 cells, 4NQO, pChk1 Ser345; Table 2; read-out: Assay b) ATR Cell IC50
[4] = HT29 cells, X-ray irradiation, pATM Ser1981; Table 3 comparative data; read-out: Assay a) ATM Cell IC50
[5] = MDA-MB-468 cells, phospho-AKT Ser473, 2 h; Table 3 comparative data; read-out: Assay d) mTOR Cell IC50
[6] = HT29 cells, 4NQO, pChk1 Ser345; Table 3 comparative data; read-out: Assay b) ATR Cell IC50

T3 sequence (Q13535 whole entry): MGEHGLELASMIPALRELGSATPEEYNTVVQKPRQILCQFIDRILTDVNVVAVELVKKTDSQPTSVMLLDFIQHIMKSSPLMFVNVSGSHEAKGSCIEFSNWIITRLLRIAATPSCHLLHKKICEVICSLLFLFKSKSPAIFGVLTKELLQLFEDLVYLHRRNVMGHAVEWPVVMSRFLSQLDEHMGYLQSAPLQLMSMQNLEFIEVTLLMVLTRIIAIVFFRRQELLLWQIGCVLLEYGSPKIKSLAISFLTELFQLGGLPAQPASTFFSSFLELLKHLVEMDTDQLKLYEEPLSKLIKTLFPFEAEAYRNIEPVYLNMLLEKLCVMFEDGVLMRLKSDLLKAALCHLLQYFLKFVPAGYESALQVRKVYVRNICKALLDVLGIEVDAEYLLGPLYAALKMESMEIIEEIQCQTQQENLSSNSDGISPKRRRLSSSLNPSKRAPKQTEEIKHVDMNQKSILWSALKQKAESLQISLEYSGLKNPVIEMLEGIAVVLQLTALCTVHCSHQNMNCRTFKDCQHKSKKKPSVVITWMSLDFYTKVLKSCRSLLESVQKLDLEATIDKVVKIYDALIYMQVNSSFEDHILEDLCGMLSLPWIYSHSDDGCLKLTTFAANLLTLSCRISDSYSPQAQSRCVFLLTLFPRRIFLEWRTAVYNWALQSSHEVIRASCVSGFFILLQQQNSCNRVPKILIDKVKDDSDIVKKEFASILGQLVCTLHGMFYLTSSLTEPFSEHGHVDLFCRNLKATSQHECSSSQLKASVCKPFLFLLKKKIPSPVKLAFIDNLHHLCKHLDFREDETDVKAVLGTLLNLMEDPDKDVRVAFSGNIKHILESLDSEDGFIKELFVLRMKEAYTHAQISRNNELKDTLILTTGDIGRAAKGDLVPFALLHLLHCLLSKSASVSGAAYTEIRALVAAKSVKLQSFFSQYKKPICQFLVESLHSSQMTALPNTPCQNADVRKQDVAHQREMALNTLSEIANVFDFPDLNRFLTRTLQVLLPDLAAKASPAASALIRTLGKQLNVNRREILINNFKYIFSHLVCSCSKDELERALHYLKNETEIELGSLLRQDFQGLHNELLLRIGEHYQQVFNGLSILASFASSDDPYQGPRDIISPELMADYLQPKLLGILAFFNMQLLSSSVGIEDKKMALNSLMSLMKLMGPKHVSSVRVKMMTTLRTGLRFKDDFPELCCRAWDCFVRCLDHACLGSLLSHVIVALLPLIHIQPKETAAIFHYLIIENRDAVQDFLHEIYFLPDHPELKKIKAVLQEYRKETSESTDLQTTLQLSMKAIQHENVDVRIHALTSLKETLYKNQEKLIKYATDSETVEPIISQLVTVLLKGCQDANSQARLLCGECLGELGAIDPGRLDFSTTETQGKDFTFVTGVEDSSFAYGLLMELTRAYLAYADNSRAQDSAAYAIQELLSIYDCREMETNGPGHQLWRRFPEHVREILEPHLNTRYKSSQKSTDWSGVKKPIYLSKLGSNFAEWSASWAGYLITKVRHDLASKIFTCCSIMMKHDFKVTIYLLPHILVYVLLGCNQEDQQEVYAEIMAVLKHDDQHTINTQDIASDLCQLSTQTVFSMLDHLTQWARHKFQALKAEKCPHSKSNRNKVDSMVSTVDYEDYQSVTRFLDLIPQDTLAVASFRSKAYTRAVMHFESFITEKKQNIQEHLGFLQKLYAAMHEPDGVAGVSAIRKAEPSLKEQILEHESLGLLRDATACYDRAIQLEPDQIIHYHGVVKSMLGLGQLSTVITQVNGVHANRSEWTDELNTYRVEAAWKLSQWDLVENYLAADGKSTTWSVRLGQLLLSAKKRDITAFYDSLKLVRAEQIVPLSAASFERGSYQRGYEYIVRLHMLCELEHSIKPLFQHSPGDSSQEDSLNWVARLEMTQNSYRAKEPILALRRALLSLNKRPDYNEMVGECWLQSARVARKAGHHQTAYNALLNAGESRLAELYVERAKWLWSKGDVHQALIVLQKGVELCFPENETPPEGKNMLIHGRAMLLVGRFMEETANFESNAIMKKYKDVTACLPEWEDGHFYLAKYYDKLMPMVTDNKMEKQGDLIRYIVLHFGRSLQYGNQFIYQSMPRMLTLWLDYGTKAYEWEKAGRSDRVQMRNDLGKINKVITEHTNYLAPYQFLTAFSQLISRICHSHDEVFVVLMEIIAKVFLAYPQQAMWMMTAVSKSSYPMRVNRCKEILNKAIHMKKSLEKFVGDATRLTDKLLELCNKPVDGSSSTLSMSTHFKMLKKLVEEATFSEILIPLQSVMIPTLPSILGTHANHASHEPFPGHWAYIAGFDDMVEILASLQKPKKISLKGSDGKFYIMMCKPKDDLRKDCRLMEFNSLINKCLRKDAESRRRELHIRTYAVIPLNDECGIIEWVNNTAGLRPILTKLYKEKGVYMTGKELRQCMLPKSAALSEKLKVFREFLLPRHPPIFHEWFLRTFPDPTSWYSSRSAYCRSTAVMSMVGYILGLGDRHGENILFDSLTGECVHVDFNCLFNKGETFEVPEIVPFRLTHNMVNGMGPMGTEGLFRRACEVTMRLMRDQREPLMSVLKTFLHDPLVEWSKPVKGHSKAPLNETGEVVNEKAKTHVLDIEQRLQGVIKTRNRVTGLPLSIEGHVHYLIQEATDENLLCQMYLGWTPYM
T3 sequence (Q8WXE1 whole entry partner): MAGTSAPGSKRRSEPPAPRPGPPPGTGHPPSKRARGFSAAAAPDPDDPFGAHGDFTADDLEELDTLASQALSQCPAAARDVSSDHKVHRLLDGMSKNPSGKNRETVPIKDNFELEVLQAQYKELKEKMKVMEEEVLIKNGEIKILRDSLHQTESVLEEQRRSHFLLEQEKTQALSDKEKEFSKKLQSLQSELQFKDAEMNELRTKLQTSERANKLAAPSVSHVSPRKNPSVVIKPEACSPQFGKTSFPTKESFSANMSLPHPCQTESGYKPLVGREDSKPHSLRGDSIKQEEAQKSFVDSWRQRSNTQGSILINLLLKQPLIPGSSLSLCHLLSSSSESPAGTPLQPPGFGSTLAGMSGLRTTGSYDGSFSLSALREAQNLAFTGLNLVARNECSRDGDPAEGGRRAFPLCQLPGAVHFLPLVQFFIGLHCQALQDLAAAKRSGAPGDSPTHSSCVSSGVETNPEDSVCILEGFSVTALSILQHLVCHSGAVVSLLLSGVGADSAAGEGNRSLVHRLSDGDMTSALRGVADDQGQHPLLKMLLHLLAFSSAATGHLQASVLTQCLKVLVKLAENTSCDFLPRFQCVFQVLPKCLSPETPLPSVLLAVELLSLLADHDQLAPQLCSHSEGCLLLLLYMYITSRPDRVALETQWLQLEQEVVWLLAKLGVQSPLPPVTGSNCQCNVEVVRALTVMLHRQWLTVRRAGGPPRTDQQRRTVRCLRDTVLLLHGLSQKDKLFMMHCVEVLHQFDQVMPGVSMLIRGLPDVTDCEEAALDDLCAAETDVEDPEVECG

IC50 (ATM kinase; [1]) [nM]	IC50 (mTOR; [2]) [nM]	IC50 (ATR kinase; [3]) [nM]	SMILES	IC50 (ATM kinase; [4]) [nM]	IC50 (mTOR; [5]) [nM]	IC50 (ATR kinase; [6]) [nM]
2.3	1230	28000	CO[C@@H]1CCC[C@H](n2c(=O)n(C)c3cnc4ccc(-c5ccc(OCCCN(C)C)cc5)cc4c32)C1 (relative stereo) [Example 33, 8-[4-[3-(dimethylamino)propoxy]phenyl]-1-[cis-3-methoxycyclohexyl]-3-methyl-imidazo[4,5-c]quinolin-2-one]			
	899		CO[C@@H]1CCC[C@H](n2c(=O)n(C)c3cnc4ccc(-c5ccc(OCCCN6CCCC6)cc5)cc4c32)C1 (relative stereo) [Example 39, 1-[cis-3-methoxycyclohexyl]-3-methyl-8-[4-(3-pyrrolidin-1-ylpropoxy)phenyl]imidazo[4,5-c]quinolin-2-one]			
0.29	634	18000	CO[C@H]1CC[C@H](n2c(=O)n(C)c3cnc4ccc(-c5ccc(OCCCN6CCCC6)cc5)cc4c32)C1 (single isomer, unassigned) [Example 19, 1-[trans-3-methoxycyclopentyl]-3-methyl-8-[4-(3-pyrrolidin-1-ylpropoxy)phenyl]imidazo[4,5-c]quinolin-2-one]			
0.452	5500	21300	CO[C@@H]1CC[C@@H](n2c(=O)n(C)c3cnc4ccc(-c5ccc(OCCCN6CCCC6)cc5)cc4c32)C1 (single isomer, unassigned) [Example 20, 1-[trans-3-methoxycyclopentyl]-3-methyl-8-[4-(3-pyrrolidin-1-ylpropoxy)phenyl]imidazo[4,5-c]quinolin-2-one]			
1.42	5680	> 30000	CO[C@H]1CC[C@H](n2c(=O)n(C)c3cnc4cc(F)c(-c5ccc(OCCCN6CCC6)cc5)cc4c32)C1 (single isomer, unassigned) [Example 23, 8-[4-[3-(azetidin-1-yl)propoxy]phenyl]-7-fluoro-1-[trans-3-methoxycyclopentyl]-3-methyl-imidazo[4,5-c]quinolin-2-one]			
0.917	5910	> 24600	CO[C@@H]1CC[C@@H](n2c(=O)n(C)c3cnc4cc(F)c(-c5ccc(OCCCN6CCC6)cc5)cc4c32)C1 (single isomer, unassigned) [Example 24, 8-[4-[3-(azetidin-1-yl)propoxy]phenyl]-7-fluoro-1-[trans-3-methoxycyclopentyl]-3-methyl-imidazo[4,5-c]quinolin-2-one]			
1.62	1700	15500	CO[C@H]1CCC[C@H](n2c(=O)n(C)c3cnc4ccc(-c5ccc(OCCCN6CCCC6)cc5)cc4c32)C1 (single isomer, unassigned) [Example 30, 1-[trans-3-methoxycyclohexyl]-3-methyl-8-[4-(3-pyrrolidin-1-ylpropoxy)phenyl]imidazo[4,5-c]quinolin-2-one]			
	4660		CO[C@@H]1CC[C@H](n2c(=O)n(C)c3cnc4ccc(-c5ccc(OCCCN(C)C)cc5)cc4c32)C1 (single isomer, unassigned) [Example 34, 8-[4-[3-(dimethylamino)propoxy]phenyl]-1-[cis-3-methoxycyclopentyl]-3-methyl-imidazo[4,5-c]quinolin-2-one]			
2.95	4110	> 30000	CO[C@@H]1CC[C@H](n2c(=O)n(C)c3cnc4cc(F)c(-c5ccc(OCCCN(C)C)cc5)cc4c32)C1 (single isomer, unassigned) [Example 37, 8-[4-[3-(dimethylamino)propoxy]phenyl]-7-fluoro-1-[cis-3-methoxycyclopentyl]-3-methyl-imidazo[4,5-c]quinolin-2-one]			
			COC(=O)N1CCC(n2c(=O)n(C)c3cnc4ccc(-c5ccc(OC)nc5)cc4c32)CC1 [CN102372711A Compound 4, reference compound]	11.2	72.9	68.6
			Cn1c(=O)n(C2CCOCC2)c2c3cc(-c4cnn(CCCO)c4)ccc3ncc21 [CN102399218A Compound 60, reference compound]	1760	2310	> 77.1
6.64	9120	> 30000	CC(C)n1c(=O)n(C)c2cnc3cc(F)c(-c4ccc(OCCCN5CCC5)cc4)cc3c21 [Example 4, 8-[4-[3-(azetidin-1-yl)propoxy]phenyl]-7-fluoro-1-isopropyl-3-methyl-imidazo[4,5-c]quinolin-2-one]			
	781		CO[C@H]1CC[C@H](n2c(=O)n(C)c3cnc4ccc(-c5ccc(OCCCN(C)C)cc5)cc4c32)C1 [Example 6, 8-[4-[3-(Dimethylamino)propoxy]phenyl]-1-[(1S,3S)-3-methoxycyclopentyl]-3-methyl-imidazo[4,5-c]quinolin-2-one]			
0.647	6360	> 30000	CO[C@H]1C[C@@H](n2c(=O)n(C)c3cnc4ccc(-c5ccc(OCCCN(C)C)cc5)cc4c32)C1 [Example 11, 8-[4-[3-(dimethylamino)propoxy]phenyl]-1-(cis-3-methoxycyclobutyl)-3-methyl-imidazo[4,5-c]quinolin-2-one]			
0.911	2580	21600	Cn1c(=O)n([C@H]2CCCOC2)c2c3cc(-c4ccc(OCCCN5CCCC5)cc4)ccc3ncc21 [Example 15, 3-methyl-8-[4-(3-pyrrolidin-1-ylpropoxy)phenyl]-1-[(3S)-tetrahydropyran-3-yl]imidazo[4,5-c]quinolin-2-one]			
	2650	> 17800	Cn1c(=O)n(C2CCOCC2)c2c3cc(-c4ccc(OCCCN5CCCCC5)cc4)ccc3ncc21 [Example 18, 3-methyl-8-[4-[3-(1-piperidyl)propoxy]phenyl]-1-tetrahydropyran-4-yl-imidazo[4,5-c]quinolin-2-one]			
0.533	5070	> 30000	CO[C@H]1C[C@H](n2c(=O)n(C)c3cnc4ccc(-c5ccc(OCCCN(C)C)cc5)cc4c32)C1 [Example 21, 8-[4-[3-(dimethylamino)propoxy]phenyl]-1-(trans-3-methoxycyclobutyl)-3-methyl-imidazo[4,5-c]quinolin-2-one]			
